Literature values, collected in paper PMC5487681, “Identification of Antifungal H^+-ATPase Inhibitors with Effect on Plasma Membrane Potential” (Antimicrobial Agents and Chemotherapy, 2017).

What was measured:
[1] = tested on: Saccharomyces cerevisiae ATCC 9763; details: pH 3; cited from earlier work
S. cerevisiae cells = tested on: S. cerevisiae cells; parameters: method as in PMID 19413991; details: cited from earlier work

COc1ccc2[nH]c([S+]([O-])Cc3ncc(C)c(OC)c3C)nc2c1 (centres unmarked) [omeprazole]
Concentration required for full growth inhibition of Saccharomyces cerevisiae [1]: 430 µM
Increase in iATP levels, S. cerevisiae (S. cerevisiae cells): 36%
